# Source: patent US11208412B2 (DAEGU-GYEONGBUK MEDICAL INNOVATION FOUNDATION, priority 2017, dated 2021)
# Tests used:
# Experiment in all cases: Kinase selectivity, DiscoverX scanMAX Kinase assay panel (% control)
# Type in all cases: binding
# [1] = molecular target: T1, kinases of the scanMAX Kinase assay panel (Homo sapiens, UniProt Q9H0K1); conditions: kinase SIK2; 1 uM in DMSO
# T1 construct: purchased DiscoverX Co. (contract measurement) scanMAX Kinase assay panel
# Description: (§1) The following experiment was performed to evaluate the activity of the compounds of the present invention to inhibit many enzymes.
# (§2) Particularly, the compounds of Examples 8, 64 and 104 were selected among all of those compounds of the invention. DiscoverX Co. was asked to measure the enzyme (kinase) selectivity, and the experiment was performed using scanMAX™ Kinase assay panel.
# (§3) Wherein, the concentration of the drug treated to each enzyme was 1 uM in DMSO and the control percentage (% control) was determined by the following Equation 1. (example compound−positive control)/(negative control−positive control)×100 [Equation 1]
# (§4) Herein, the positive control indicates the compound showing the % control of 0%, and the negative control indicates DMSO showing the % control of 100%. The enzyme selectivity in the present invention is defined as follows: When the % control for each enzyme is less than 35% (<35%), it is judged that the compound has the activity to the corresponding enzyme.
# [2] = molecular target: T2, kinases of the scanMAX Kinase assay panel (Homo sapiens, UniProt P00519); conditions: 1 uM
# T2 construct: purchased DiscoverX Co. (contract measurement) scanMAX Kinase assay panel
# Description: as §1, §2, §3, §4
# [3] = molecular target: T3, kinases of the scanMAX Kinase assay panel (Homo sapiens, UniProt P30291); conditions: kinase WEE1; 1 uM in DMSO
# T3 construct: purchased DiscoverX Co. (contract measurement) scanMAX Kinase assay panel
# Description: as §1, §2, §3, §4
# [4] = molecular target: T4, kinases of the scanMAX Kinase assay panel (Homo sapiens, UniProt Q6P3R8); conditions: NEK5; 1 uM
# T4 construct: purchased DiscoverX Co. (contract measurement) scanMAX Kinase assay panel
# T4 sequence (Q6P3R8 1-708): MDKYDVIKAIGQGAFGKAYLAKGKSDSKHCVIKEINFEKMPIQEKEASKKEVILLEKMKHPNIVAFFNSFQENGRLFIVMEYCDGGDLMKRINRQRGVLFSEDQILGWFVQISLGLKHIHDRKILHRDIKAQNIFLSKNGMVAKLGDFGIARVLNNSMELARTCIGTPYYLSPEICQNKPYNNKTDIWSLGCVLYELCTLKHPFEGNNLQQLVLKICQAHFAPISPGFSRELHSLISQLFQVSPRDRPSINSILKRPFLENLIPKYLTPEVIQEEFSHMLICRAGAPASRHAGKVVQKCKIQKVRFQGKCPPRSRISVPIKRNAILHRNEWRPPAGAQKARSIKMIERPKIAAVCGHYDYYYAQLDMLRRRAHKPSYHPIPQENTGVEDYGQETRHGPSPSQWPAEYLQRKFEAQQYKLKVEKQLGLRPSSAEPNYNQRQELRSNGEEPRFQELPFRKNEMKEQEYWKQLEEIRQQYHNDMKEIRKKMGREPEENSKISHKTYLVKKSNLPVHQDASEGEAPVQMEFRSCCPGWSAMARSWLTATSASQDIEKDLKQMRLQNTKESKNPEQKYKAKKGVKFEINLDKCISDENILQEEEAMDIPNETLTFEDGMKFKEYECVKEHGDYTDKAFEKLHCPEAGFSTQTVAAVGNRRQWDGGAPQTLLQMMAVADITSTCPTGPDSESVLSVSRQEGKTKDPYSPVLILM
# Description: as §1, §2, §3, §4
# [5] = molecular target: T5, kinases of the scanMAX Kinase assay panel (Homo sapiens, UniProt O14976); conditions: GAK; 1 uM
# T5 construct: purchased DiscoverX Co. (contract measurement) scanMAX Kinase assay panel
# T5 sequence (O14976 1-1311): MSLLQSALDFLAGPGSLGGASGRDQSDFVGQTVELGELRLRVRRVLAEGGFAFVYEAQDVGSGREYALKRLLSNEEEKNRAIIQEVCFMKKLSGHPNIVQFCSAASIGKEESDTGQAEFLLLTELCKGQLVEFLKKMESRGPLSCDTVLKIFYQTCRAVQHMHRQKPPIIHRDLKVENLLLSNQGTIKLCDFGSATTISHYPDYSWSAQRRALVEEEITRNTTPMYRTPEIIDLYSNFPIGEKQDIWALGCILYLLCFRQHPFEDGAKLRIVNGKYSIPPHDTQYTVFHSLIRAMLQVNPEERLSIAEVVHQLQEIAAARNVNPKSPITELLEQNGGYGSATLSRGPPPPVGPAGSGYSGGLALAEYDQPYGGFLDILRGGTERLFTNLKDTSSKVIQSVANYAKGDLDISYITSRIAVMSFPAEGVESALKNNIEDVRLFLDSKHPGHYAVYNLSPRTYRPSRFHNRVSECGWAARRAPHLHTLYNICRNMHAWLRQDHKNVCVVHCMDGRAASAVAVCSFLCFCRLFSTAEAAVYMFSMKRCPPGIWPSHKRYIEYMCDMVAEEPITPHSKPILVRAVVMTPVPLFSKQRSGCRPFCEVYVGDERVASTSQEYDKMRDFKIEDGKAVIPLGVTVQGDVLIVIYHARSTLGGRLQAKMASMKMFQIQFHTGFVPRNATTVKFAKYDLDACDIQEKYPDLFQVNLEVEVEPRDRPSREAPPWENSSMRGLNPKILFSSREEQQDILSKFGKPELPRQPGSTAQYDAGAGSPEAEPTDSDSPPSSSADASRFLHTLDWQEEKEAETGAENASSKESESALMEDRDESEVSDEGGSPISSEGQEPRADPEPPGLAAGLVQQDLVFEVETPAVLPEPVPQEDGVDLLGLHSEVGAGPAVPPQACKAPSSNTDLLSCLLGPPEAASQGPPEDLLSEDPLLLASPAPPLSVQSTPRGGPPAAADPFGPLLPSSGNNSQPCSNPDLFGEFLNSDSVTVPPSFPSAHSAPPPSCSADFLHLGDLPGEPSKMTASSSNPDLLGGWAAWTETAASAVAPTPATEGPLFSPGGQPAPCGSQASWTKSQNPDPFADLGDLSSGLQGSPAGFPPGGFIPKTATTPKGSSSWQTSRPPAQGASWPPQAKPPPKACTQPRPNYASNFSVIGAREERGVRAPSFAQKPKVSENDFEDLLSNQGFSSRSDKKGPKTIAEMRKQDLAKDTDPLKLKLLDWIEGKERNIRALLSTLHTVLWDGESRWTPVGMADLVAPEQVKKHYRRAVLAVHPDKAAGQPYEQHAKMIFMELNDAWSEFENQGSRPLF
# Description: as §1, §2, §3, §4
# [6] = molecular target: T6, kinases of the scanMAX Kinase assay panel (Homo sapiens, UniProt Q96RR4); conditions: CAMKK2; 1 uM
# T6 construct: purchased DiscoverX Co. (contract measurement) scanMAX Kinase assay panel
# Description: as §1, §2, §3, §4
# [7] = molecular target: T7, kinases of the scanMAX Kinase assay panel (Homo sapiens, UniProt Q9Y6M4); conditions: CSNK1G3; 1 uM
# T7 construct: purchased DiscoverX Co. (contract measurement) scanMAX Kinase assay panel
# Description: as §1, §2, §3, §4
# T2 sequence (P00519 whole entry): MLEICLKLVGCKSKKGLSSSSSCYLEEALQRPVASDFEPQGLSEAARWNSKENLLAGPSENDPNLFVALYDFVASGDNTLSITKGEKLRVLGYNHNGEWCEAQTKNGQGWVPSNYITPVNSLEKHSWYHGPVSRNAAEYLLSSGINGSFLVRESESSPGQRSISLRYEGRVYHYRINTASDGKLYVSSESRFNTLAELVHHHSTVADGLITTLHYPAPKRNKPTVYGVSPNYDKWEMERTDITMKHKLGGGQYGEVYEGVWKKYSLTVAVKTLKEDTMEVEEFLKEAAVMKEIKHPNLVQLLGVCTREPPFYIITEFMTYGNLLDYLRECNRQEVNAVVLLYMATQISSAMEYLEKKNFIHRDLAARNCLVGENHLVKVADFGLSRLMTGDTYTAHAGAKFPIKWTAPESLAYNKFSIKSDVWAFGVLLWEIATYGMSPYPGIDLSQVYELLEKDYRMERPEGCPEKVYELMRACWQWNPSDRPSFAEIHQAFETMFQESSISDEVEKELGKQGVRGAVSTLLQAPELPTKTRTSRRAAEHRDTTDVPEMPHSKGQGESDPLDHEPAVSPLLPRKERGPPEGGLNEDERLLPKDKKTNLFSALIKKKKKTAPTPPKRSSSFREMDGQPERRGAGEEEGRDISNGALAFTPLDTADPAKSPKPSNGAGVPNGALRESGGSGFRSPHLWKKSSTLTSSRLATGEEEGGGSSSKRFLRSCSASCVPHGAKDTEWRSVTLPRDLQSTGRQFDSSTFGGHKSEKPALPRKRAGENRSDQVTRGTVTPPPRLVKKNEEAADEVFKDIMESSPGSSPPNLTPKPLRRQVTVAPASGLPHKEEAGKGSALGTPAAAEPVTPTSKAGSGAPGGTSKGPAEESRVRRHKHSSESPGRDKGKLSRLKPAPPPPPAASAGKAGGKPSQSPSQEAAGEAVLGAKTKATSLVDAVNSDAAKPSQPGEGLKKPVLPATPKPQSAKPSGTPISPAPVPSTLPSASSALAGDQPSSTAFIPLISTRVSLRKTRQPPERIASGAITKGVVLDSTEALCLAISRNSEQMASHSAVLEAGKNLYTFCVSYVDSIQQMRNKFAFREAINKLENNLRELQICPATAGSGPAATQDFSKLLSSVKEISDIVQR
# T3 sequence (P30291 whole entry): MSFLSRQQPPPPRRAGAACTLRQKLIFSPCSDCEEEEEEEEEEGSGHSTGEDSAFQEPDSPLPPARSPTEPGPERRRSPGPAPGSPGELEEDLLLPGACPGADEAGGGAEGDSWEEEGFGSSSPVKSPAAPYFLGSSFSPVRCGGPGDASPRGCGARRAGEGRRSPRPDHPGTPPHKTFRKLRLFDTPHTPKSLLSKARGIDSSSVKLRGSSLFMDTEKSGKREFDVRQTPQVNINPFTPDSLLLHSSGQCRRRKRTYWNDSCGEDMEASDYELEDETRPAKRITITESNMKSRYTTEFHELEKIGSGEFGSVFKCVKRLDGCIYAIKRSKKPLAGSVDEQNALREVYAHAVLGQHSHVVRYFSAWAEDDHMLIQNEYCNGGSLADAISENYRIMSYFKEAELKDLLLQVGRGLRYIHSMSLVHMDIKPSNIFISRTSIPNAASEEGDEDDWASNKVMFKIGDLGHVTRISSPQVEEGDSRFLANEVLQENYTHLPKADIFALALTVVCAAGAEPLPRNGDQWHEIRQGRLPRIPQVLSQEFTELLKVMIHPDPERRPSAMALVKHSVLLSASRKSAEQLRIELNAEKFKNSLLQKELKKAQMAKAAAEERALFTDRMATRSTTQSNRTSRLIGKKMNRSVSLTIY
# T1 sequence (Q9H0K1 whole entry): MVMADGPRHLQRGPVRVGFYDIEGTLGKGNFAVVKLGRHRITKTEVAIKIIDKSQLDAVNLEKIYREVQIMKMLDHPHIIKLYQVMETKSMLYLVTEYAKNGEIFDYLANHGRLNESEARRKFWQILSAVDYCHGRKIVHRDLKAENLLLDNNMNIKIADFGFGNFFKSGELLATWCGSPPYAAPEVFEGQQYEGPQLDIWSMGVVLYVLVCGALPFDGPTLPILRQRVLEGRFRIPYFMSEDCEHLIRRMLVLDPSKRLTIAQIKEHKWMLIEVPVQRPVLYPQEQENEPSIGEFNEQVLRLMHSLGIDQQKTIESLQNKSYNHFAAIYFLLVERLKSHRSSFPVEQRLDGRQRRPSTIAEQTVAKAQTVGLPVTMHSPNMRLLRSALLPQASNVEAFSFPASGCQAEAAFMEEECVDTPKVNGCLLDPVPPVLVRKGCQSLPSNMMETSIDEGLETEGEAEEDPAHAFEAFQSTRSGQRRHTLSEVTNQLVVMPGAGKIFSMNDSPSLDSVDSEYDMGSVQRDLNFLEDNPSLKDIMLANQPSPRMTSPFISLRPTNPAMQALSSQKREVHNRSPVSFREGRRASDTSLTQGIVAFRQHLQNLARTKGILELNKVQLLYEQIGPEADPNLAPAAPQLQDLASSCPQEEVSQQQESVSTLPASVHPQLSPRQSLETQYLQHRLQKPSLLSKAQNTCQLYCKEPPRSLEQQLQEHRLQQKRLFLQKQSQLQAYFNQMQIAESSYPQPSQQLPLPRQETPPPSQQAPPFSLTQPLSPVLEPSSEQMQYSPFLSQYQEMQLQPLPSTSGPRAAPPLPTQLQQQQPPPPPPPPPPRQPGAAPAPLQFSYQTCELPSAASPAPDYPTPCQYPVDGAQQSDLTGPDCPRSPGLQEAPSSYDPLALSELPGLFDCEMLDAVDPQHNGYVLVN
# T6 sequence (Q96RR4 whole entry): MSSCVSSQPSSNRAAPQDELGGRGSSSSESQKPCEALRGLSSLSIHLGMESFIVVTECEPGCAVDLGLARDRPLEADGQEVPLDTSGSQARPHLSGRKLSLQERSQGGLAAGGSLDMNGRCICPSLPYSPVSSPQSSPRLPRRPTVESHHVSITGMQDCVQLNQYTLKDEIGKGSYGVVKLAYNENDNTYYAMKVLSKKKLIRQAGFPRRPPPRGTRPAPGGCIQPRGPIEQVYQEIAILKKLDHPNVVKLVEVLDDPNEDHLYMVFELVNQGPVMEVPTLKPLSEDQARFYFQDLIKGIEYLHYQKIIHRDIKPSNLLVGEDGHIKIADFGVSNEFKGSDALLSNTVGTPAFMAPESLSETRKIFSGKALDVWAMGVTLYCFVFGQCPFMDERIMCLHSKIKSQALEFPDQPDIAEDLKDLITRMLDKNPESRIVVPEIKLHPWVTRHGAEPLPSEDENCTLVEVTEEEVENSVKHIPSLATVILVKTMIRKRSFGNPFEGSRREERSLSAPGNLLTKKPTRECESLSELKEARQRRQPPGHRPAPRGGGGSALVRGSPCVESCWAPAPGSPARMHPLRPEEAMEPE
# T7 sequence (Q9Y6M4 whole entry): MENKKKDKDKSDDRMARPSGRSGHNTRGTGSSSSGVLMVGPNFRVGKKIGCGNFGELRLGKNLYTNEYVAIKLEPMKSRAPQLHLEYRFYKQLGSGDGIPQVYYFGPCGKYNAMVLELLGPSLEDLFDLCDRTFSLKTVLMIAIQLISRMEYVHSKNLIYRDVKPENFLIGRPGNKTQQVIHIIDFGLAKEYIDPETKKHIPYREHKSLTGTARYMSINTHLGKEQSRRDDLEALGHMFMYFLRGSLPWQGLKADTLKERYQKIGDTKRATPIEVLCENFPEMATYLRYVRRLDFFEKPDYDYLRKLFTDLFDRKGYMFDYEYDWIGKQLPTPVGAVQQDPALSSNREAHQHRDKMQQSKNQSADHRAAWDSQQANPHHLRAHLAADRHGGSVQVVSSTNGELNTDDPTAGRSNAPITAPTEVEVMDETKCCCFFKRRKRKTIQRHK
smiles,measurement,setting,value
"CCNc1nc(Nc2ccc(C(=O)N3CCC(N4CCOCC4)CC3)cc2OC)nc2[nH]cc(C(F)(F)F)c12 [Example 104, (4-((4-(ethylamino)-5-(trifluoromethyl)-7H-pyrrolo[2,3-d]pyrimidine-2-yl)amino)-3-methoxyphenyl)(4-morpholinopiperidine-1-yl)methanone]",remaining binding at 1 µM,[1],100%
same,remaining binding at 1 µM,[2]; ABL1-nonphosphorylated,91%
same,remaining binding at 1 µM,[2]; ABL1-phosphorylated,63%
same,remaining binding at 1 µM,[3],100%
same,remaining binding at 1 µM,[4],95%
same,remaining binding at 1 µM,[5],1%
same,remaining binding at 1 µM,[6],20%
same,remaining binding at 1 µM,[7],90%
"CC1(Nc2nc(Nc3cnn([C@H]4CCN(C5COC5)C[C@@H]4F)c3Cl)nc3[nH]cc(C#N)c23)CC1 [Example 52, 2-((5-chloro-1-((3S,4S)-3-fluoro-1-(oxetane-3-yl)piperidine-4-yl)-1H-pyrazole-4-yl)amino)((1-methylcyclopropyl)amino)-7H-pyrrolo[2,3-d]pyrimidine-5-carbonitrile]",remaining binding at 1 µM,[1],33%
same,remaining binding at 1 µM,[2]; ABL1-nonphosphorylated,6.4%
same,remaining binding at 1 µM,[2]; ABL1-phosphorylated,1.8%
same,remaining binding at 1 µM,[3],100%
same,remaining binding at 1 µM,[4],99%
same,remaining binding at 1 µM,[5],5.8%
same,remaining binding at 1 µM,[6],5.7%
same,remaining binding at 1 µM,[7],0.15%
"CNc1nc(Nc2ccc(C(=O)N3CCOCC3)cc2OC)nc2[nH]cc(C#N)c12 [Example 1, 2-((2-methoxy-4-(morpholine-4-carbonyl)phenyl)amino)-4-(methylamino)-7H-pyrrolo[2,3-d]pyrimidine-5-carbonitrile]",remaining binding at 1 µM,[1],100%
same,remaining binding at 1 µM,[2]; ABL1-nonphosphorylated,92%
same,remaining binding at 1 µM,[2]; ABL1-phosphorylated,88%
same,remaining binding at 1 µM,[3],78%
same,remaining binding at 1 µM,[4],98%
same,remaining binding at 1 µM,[5],11%
same,remaining binding at 1 µM,[6],65%
same,remaining binding at 1 µM,[7],58%
